According to US9156816B2 (priority 2010, dated 2015):

Assays:
Pythium aphanidermatum = assay: Antimicrobial test (mycelia growth inhibition); format: cell-based; settings: compound concentration of 1 ppm, PSY medium, 25° C., days 3 to 7 of culturing, read-out: mycelia growth inhibition rate
Experimental: The compound according to the present invention was dissolved in dimethylsulfoxide and diluted to double the prescribed concentration in a 96-well microplate using PSY medium to obtain a drug solution. On the other hand, a diluted dimethylsulfoxide solution was prepared using PSY medium for use as an untreated group.
A suspension of liquid-cultured test microorganisms (Pythium aphanidermatum) was mixed with an equal volume of the drug solution and cultured in a dark location at 25° C. Mycelia growth was observed on days 3 to 7 of culturing to determine mycelia growth inhibition rates.

Pythium ultimum = assay: Cucumber damping-off (PU) control test; format: in vivo; settings: Globisporangium ultimum, 168 h, soil irrigated with 30 ml emulsion at active ingredient concentration of 100 ppm, ratio of healthy seedlings on day 7 after planting vs untreated group
Experimental: 40 ml of sterile soil were placed in plastic cups followed by leveling the surface of the soil. The soil was then irrigated with 30 ml of the aforementioned emulsion of Preparation Example 2 at an active ingredient concentration of 100 ppm. Following irrigation, cucumbers (variety: Sagami Hanjiro) were planted in the soil and covered with 20 ml of contaminated soil (containing Pythium ultimum) from above. The cups were then placed in plastic bags and allowed to stand undisturbed for 3 days in a constant temperature room at 25° C. (dark location […]). Next, the plants were removed from the bags and held in a constant temperature room at 25° C. using a light-dark cycle of 12 hours. On day 7 after planting, the ratios of healthy seedlings were compared between an untreated group and treated group to calculate control effects (control values).

[1] = test system: tomato late blight pathogen (Phytophthora infestans); assay: whole plant or invertebrate; format: in vivo; settings: 96 h, read-out: control value

| SMILES | melting point | inhibition at 1 ppm (Pythium aphanidermatum) | pest or weed control at 100 ppm (Pythium ultimum) | pest or weed control at 100 µg/mL [1] |
| --- | --- | --- | --- | --- |
| COC(OC)C(=O)Nc1cccc(CO/N=C(/c2ccccc2)c2nnnn2C)n1 [a-3] | 88 to 90 °C | ≥ 50% | ≥ 50% | ≥ 70% |
| Cn1nnnc1/C(=N\OCc1cccc(NC(=O)CC2OCCCO2)n1)c1ccccc1 [a-14] | 107 to 108 °C | ≥ 50% | ≥ 50% | ≥ 70% |
| CCOC(C)(OCC)C(=O)Nc1cccc(CO/N=C(/c2ccccc2)c2nnnn2C)n1.Cl [a-33] | 70 to 73 °C | ≥ 50% | – | – |
| COCC(C)C(=O)Nc1cccc(CO/N=C(/c2ccccc2)c2nnnn2C)n1 (centres unmarked) [b-3] | 66 to 68 °C | ≥ 50% | ≥ 50% | – |
| COC(C)(C)C(=O)Nc1cccc(CO/N=C(/c2ccccc2)c2nnnn2C)n1 [b-6] | 104 to 105 °C | ≥ 50% | – | – |
| Cn1nnnc1/C(=N\OCc1cccc(NC(=O)C(C)(C)O)n1)c1ccccc1 [b-7] | 144 to 146 °C | ≥ 50% | – | – |
| COCC(C)(C)C(=O)Nc1cccc(CO/N=C(/c2ccccc2)c2nnnn2C)n1 [b-8] | 60 to 61 °C | ≥ 50% | ≥ 50% | – |
| COCCC(C)(C)C(=O)Nc1cccc(CO/N=C(/c2ccccc2)c2nnnn2C)n1 [b-10] | 86 to 87 °C | ≥ 50% | ≥ 50% | – |
| Cn1nnnc1/C(=N\OCc1cccc(NC(=O)OCC2COCO2)n1)c1ccccc1 (centres unmarked) [c-4] | 104 to 105 °C | ≥ 50% | ≥ 50% | ≥ 70% |
| COC(COC(=O)Nc1cccc(CO/N=C(/c2ccccc2)c2nnnn2C)n1)OC [c-7, (Z)-(1-methyl-1H-tetrazol-5-yl)phenylmethanone-o-[2-(2,2-dimethoxyethoxycarbonylamino)pyridin-6-ylmethyl]oxime] | – | ≥ 50% | ≥ 50% | ≥ 70% |
| CCOC(CCOC(=O)Nc1cccc(CO/N=C(/c2ccccc2)c2nnnn2C)n1)OCC [c-8] | – | ≥ 50% | ≥ 50% | ≥ 70% |
| COC(CC(C)(C)OC(=O)Nc1cccc(CO/N=C(/c2ccccc2)c2nnnn2C)n1)OC [c-9] | – | ≥ 50% | ≥ 50% | ≥ 70% |
| CCOC(COC(=O)Nc1cccc(CO/N=C(/c2ccccc2)c2nnnn2C)n1)OCC [c-10] | – | ≥ 50% | ≥ 50% | ≥ 70% |
| CCOC(OC(=O)Nc1cccc(CO/N=C(/c2ccccc2)c2nnnn2C)n1)C(F)(F)F (stereo not drawn) [d-1] | 123 to 124 °C | ≥ 50% | – | ≥ 70% |
| Cn1nnnc1/C(=N\OCc1cccc(NC(=O)OC2CCOCC2)n1)c1ccccc1 [d-3] | 72 to 73 °C | ≥ 50% | – | ≥ 70% |
| Cn1nnnc1/C(=N\OCc1cccc(NC(=O)OC2CCOC2)n1)c1ccccc1 (stereo not drawn) [d-4] | 76 to 78 °C | – | – | ≥ 70% |
| COCCCC(C)(C)OC(=O)Nc1cccc(CO/N=C(/c2ccccc2)c2nnnn2C)n1 [d-8] | – | ≥ 50% | ≥ 50% | ≥ 70% |
| CCOCCC(C)OC(=O)Nc1cccc(CO/N=C(/c2ccccc2)c2nnnn2C)n1 (stereo not drawn) [d-13] | – | ≥ 50% | ≥ 50% | ≥ 70% |
| COCCC(C)OC(=O)Nc1cccc(CO/N=C(/c2ccccc2)c2nnnn2C)n1 (stereo not drawn) [d-14] | – | ≥ 50% | ≥ 50% | ≥ 70% |
| CCOCCCOC(=O)Nc1cccc(CO/N=C(/c2ccccc2)c2nnnn2C)n1 [d-15] | – | ≥ 50% | ≥ 50% | ≥ 70% |
| CCOCC(COC(=O)Nc1cccc(CO/N=C(/c2ccccc2)c2nnnn2C)n1)OCC (stereo not drawn) [d-17] | – | ≥ 50% | ≥ 50% | ≥ 70% |
| CCOCC(CCOC(=O)Nc1cccc(CO/N=C(/c2ccccc2)c2nnnn2C)n1)OCC (stereo not drawn) [d-18] | – | ≥ 50% | ≥ 50% | ≥ 70% |
